Here are results for five compounds from ChEMBL document CHEMBL1909046, “DrugMatrix in vitro pharmacology data”.

Test [1] has as its target T1, Alpha-1D adrenergic receptor (Homo sapiens, UniProt P25100). Also: in other assays of this panel Not Active means under 50% inhibition at 10 µM.
T1 sequence (P25100 whole entry): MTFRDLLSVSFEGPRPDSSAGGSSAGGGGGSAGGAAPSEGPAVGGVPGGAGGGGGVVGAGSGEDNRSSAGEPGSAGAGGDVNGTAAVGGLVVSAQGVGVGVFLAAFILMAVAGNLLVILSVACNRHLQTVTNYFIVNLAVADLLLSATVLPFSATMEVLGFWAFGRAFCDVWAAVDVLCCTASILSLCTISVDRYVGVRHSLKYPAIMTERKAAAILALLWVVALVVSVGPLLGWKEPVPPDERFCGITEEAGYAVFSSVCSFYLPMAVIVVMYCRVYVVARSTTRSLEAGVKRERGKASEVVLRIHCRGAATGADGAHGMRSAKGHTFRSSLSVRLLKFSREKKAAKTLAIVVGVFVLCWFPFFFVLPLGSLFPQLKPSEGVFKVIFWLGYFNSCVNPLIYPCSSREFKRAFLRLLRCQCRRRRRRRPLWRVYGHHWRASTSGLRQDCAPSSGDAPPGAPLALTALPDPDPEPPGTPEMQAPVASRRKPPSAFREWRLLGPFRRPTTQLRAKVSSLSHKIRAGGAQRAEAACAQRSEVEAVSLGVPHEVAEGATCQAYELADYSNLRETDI
It counts as cell membranes, HEK293, Membrane. As to conditions: hek293.

A short description of test [2]: DRUGMATRIX: Sigma2 radioligand binding (ligand: [3H] Ifenprodil). It counts as cell membranes, Rattus norvegicus, Wistar, Brain, Membrane. Conditions: Not Active = under 50% inhibition at 10 µM.
The target of test [3] is 5-hydroxytryptamine receptor 1B (Rattus norvegicus, UniProt P28564). It counts as cell membranes, Wistar, Cerebral cortex, Membrane. Also: in other assays of this panel Not Active means under 50% inhibition at 10 µM.
Sequence of 5-hydroxytryptamine receptor 1B (P28564 whole entry): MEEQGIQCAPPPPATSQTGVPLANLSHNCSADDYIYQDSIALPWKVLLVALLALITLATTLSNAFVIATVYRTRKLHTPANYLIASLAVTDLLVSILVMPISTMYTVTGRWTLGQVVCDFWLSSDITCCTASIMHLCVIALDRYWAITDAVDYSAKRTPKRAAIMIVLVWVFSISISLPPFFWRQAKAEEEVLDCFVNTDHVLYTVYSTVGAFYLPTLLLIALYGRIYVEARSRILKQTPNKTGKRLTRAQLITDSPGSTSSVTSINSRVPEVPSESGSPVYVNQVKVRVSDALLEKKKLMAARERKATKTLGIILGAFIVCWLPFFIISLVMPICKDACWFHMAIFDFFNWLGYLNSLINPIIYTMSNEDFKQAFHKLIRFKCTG
Test [4] deals with Beta-2 adrenergic receptor (Homo sapiens, UniProt P07550). In words: DRUGMATRIX: Adrenergic beta2 radioligand binding (ligand: [3H] CGP-12177). It counts as cell membranes, CHO, Membrane. As to conditions: cho; Not Active = under 50% inhibition at 10 µM.
Sequence of Beta-2 adrenergic receptor (P07550 whole entry): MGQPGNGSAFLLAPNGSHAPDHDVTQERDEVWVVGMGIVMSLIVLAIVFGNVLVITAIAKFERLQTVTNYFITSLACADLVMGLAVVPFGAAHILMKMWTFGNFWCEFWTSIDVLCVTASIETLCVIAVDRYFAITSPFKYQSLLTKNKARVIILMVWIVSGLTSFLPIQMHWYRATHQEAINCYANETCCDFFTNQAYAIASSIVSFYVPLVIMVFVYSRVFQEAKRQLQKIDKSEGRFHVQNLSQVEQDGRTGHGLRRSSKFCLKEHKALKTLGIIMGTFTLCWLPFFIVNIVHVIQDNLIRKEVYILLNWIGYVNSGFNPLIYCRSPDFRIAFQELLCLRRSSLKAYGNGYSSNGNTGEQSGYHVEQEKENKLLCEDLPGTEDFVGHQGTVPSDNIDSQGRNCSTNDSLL
A short description of test [5]: DRUGMATRIX: Glutamate, NMDA, Agonism radioligand binding (ligand: [3H] CGP-39653). Conditions: Not Active = under 50% inhibition at 10 µM. It counts as cell membranes, Rattus norvegicus, Wistar, Cerebral cortex, Membrane.
The next test concerns the target Vasopressin V1a receptor (Homo sapiens, UniProt P37288). It counts as cell membranes, Membrane. Conditions: hek293. Also: in other assays of this panel Not Active means under 50% inhibition at 10 µM.

Sequence of Vasopressin V1a receptor (P37288 whole entry): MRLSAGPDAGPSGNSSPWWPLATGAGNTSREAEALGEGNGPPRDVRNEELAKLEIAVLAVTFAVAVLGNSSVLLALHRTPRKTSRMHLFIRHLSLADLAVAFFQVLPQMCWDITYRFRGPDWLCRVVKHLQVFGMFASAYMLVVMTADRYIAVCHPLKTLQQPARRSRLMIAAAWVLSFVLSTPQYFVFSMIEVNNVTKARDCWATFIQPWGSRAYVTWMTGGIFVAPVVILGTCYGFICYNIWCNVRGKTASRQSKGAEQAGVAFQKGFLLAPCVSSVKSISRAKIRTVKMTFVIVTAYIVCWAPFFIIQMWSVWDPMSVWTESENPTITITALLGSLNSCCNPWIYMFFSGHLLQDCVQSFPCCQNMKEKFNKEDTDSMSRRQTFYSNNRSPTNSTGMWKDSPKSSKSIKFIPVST

As to `C[C@]12CCC(=O)C[C@@H]1CC[C@@H]1[C@@H]2CC[C@]2(C)[C@@H](O)CC[C@@H]12` [STANOLONE], the IC50 result (in test [1]; in test [2]; in test [3]; in test [4]; in test [5]; on Vasopressin V1a receptor) was “Not Active” in each case. In addition, the Ki entry in test [2] and in test [5] was “Not Active” each time.
On to `C1CCN2C[C@@H]3C[C@@H](CN4CCCC[C@@H]34)[C@H]2C1` [SPARTEINE], for which the IC50 result (in test [1]; in test [2]; in test [3]; in test [4]; in test [5]; on Vasopressin V1a receptor) was “Not Active” throughout. For the same compound, the Ki entry in test [2] and in test [5] was “Not Active” each time.
Take `CO[C@@H]1[C@@H](OC)[C@H](C)[C@@](O)(CC(=O)O)O[C@H]1[C@H](C)[C@H]1O[C@@]2(CC[C@@](C)([C@H]3CC[C@@](C)([C@@H]4O[C@@H]([C@H]5O[C@](C)(O)[C@H](C)C[C@@H]5C)C[C@@H]4O[C@@H]4C[C@H](OC)[C@@H](OC)[C@H](C)O4)O3)O2)C[C@H](O)[C@H]1C.N` [MADURAMICIN]: the IC50 entry (in test [1]; in test [2]; in test [3]; in test [4]; in test [5]; against Vasopressin V1a receptor) was “Not Active” in each case. For the same compound, the Ki result in test [2] and in test [5] was “Not Active” each time.
With `CC(N)C12CC3CC(CC(C3)C1)C2` (stereo unspecified) [RIMANTADINE], the IC50 result (in test [1]; in test [2]; in test [3]; in test [4]; in test [5]; at Vasopressin V1a receptor) was “Not Active” each time. Also, the Ki result in test [2] and in test [5] was “Not Active” each time.
With `CCN(CC)C(=S)SSC(=S)N(CC)CC`, the IC50 result in test [1] is “Not Active”; in test [2] (read-out: IC50), 75.6 µM; in test [3] (read-out: IC50), 4.72 µM; in test [4], “Not Active”; in test [5], “Not Active”; against Vasopressin V1a receptor it was “Not Active”. Further, the Ki was 46.5 µM in test [2] (read-out: Ki), 2.15 µM in test [3] (read-out: Ki) and “Not Active” in test [5].
